Bounds are passed on as bounds.

T1 sequence (O75116 whole entry): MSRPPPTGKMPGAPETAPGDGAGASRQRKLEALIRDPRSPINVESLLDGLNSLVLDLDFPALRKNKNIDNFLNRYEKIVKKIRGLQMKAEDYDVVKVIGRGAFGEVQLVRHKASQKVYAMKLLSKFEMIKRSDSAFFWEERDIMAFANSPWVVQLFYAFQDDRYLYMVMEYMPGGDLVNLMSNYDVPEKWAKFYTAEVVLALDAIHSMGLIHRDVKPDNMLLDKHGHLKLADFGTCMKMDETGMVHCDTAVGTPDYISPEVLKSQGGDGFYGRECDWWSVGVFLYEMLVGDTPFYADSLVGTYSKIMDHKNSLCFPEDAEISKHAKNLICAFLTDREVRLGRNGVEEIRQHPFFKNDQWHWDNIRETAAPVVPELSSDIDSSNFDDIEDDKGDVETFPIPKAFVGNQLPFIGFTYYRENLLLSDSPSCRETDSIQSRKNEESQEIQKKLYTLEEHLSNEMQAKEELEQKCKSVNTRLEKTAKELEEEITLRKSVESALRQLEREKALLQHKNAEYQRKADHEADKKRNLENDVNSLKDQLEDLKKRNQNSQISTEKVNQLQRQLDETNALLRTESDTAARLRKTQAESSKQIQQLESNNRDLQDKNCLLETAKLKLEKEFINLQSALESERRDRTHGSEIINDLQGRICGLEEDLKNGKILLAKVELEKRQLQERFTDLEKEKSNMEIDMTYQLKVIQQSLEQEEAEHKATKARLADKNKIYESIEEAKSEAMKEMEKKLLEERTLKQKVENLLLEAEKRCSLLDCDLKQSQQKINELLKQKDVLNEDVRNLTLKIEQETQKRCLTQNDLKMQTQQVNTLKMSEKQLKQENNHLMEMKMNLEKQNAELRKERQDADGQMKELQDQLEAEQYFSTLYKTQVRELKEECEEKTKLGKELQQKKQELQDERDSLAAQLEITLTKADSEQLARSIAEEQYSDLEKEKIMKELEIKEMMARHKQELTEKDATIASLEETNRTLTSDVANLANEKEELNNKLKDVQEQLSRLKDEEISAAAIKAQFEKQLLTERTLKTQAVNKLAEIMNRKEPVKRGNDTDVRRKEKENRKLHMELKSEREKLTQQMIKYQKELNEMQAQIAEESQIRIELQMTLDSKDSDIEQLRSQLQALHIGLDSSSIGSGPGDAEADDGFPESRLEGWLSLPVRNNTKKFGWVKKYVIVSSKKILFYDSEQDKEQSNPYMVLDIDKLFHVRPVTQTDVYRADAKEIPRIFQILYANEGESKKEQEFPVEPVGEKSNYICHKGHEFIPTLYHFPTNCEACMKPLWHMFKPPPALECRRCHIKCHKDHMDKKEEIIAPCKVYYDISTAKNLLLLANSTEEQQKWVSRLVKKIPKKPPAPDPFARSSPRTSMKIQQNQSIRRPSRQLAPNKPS

This test addresses T1, ROCKα/ROCKII (Homo sapiens, UniProt O75116).
T1 construct: purchased Upstate Biotechnology 14-451
The test is described as follows: ROCK inhibition, Method 2 fluorescence polarization (FP) assay, ROCK IMAP Kit. In kind it is biochemical. The note with it: 10 μM ATP, read-out: IC50 Meth. 2. On the procedure:
The inhibition assays were performed with a fluorescence polarization (FP) assay using the commercially available ROCK IMAP Kit from Molecular Devices (Product ID. No. R8093), essentially in accordance with the protocol supplied by the manufacturer. […] The enzyme mix ROCKα/ROCKII was obtained from Upstate Biotechnology (Product ID No 14-451).
In summary, all compounds were screened in the wells of a 384 well plate for enzymatic inhibition with concentrations varying from 100 μM to 0.3 nM using a stepwise 3 (or 2)-fold dilution.
To perform the assay, 1 μl of a solution of the compound to be tested in DMSO (at each concentration) was added to 2 μl of a solution of the enzyme in 10 mM Tris-HCl, 10 mM MgCl2, 0.1% BSA, 0.05% NaN3, pH 7,2. The final concentration of the enzyme was 2.6 nM.
After incubating for 30 minutes at RT, 2 μl of a mixture of ATP and the protein substrate in 10 mM Tris-HCl, 10 mM MgCl2, 0.1% BSA, 0.05% NaN3, pH 7.2 was added. The final concentration of the ATP was 10 μM and final concentration of protein substrate was 0.2 μM.
After incubating for 60 minutes at RT, 12 μl of the IMAP Binding Solution (mix of the IMAP Binding Buffer A (1×) and the IMAP Binding Reagent (from the ROCK IMAP kit)) was added.
The mixture thus obtained (total volume: 17 μl) was incubated for 60 minutes at RT, upon which the fluorescence polarization was measured using an automated plate reader (Perkin Elmer, Model Envision 2100-0010 HTS) with FP filters: excitation filter FITC FP 480 and emission filters FITC FP P-pol 535 and FITC FP S-pol 535 (Perkin-Elmer). The results were fitted to a curve using the XL-Fit algorithm and IC50 values were calculated for each fitted curve, again using the XL-Fit algorithm.
Background: In fluorescence polarisation assays a small probe gives low polarisation when free and higher when bound to something large.
With “2′-(1-Amino-ethyl)-5′- (pyridin-4-ylcarbamoyl)- biphenyl-3-carboxylic acid 2-(toluene-4-sulfonyl)-ethyl ester [Compound 89]”, the half-maximal inhibitory concentration (IC50) (commonly the concentration that gives 50% inhibition) lay in the range of 100 to 1000 nM.

Take “2′-(1-Amino-ethyl)-5′- (pyridin-4-ylcarbamoyl)- biphenyl-3-carboxylic acid 4-methylsulfanyl-phenyl ester [Compound 86]”: the IC50 is less than 100 nM.

Consider `COC(=O)c1cccc(-c2cc(C(=O)Nc3ccncc3)ccc2C(C)N)c1` (centres unmarked) [Compound 4, 2′-(1-Amino-ethyl)-5′-(pyridin-4-ylcarbamoyl)-biphenyl-3-carboxylic acid methyl ester], for which the half-maximal inhibitory concentration (IC50) was less than 100 nM.

Regarding `CCOC(=O)c1cccc(-c2cc(C(=O)Nc3ccncc3F)ccc2C(C)N)c1` (centres unmarked) [Compound 9, 2′-(1-Amino-ethyl)-5′-(3-fluoro-pyridin-4-ylcarbamoyl)-biphenyl-3-carboxylic acid ethyl ester], the half-maximal inhibitory concentration (IC50) is less than 100 nM.

In the case of `CCCCCOC(=O)c1cccc(-c2cc(C(=O)Nc3ccncc3)ccc2C(C)N)c1` (centres unmarked) [Compound 16, 2′-(1-Amino-ethyl)-5′-(pyridin-4-ylcarbamoyl)-biphenyl-3-carboxylic acid pentyl ester], the IC50 was in the range of 100 to 1000 nM.

For the compound `CCCCCCCOC(=O)c1cccc(-c2cc(C(=O)Nc3ccncc3)ccc2C(C)N)c1` (centres unmarked) [Compound 18, 2′-(1-Amino-ethyl)-5′-(pyridin-4-ylcarbamoyl)-biphenyl-3-carboxylic acid heptyl ester], the IC50 was in the range of 100 to 1000 nM.

On to `CCCCCCCCOC(=O)c1cccc(-c2cc(C(=O)Nc3ccncc3)ccc2C(C)N)c1` (centres unmarked) [Compound 19, 2′-(1-Amino-ethyl)-5′-(pyridin-4-ylcarbamoyl)-biphenyl-3-carboxylic acid octyl ester], for which the IC50 lay within 100 to 1000 nM.

For the compound `CCCCCCCCCCOC(=O)c1cccc(-c2cc(C(=O)Nc3ccncc3)ccc2C(C)N)c1` (centres unmarked) [Compound 20, 2′-(1-Amino-ethyl)-5′-(pyridin-4-ylcarbamoyl)-biphenyl-3-carboxylic acid decyl ester], the IC50 was in the range of 1000 to 10000 nM.

As for `CCCCCCCCCCCOC(=O)c1cccc(-c2cc(C(=O)Nc3ccncc3)ccc2C(C)N)c1` (centres unmarked) [Compound 21, 2′-(1-Amino-ethyl)-5′-(pyridin-4-ylcarbamoyl)-biphenyl-3-carboxylic acid undecyl ester], the IC50 was in the range of 1000 to 10000 nM.

Regarding `CCCCCCCCCCCCOC(=O)c1cccc(-c2cc(C(=O)Nc3ccncc3)ccc2C(C)N)c1` (centres unmarked) [Compound 22, 2′-(1-Amino-ethyl)-5′-(pyridin-4-ylcarbamoyl)-biphenyl-3-carboxylic acid dodecyl ester], the IC50 is 1000 to 10000 nM.

Consider `CCCCCCCCCCCCCOC(=O)c1cccc(-c2cc(C(=O)Nc3ccncc3)ccc2C(C)N)c1` (centres unmarked) [Compound 23, 2′-(1-Amino-ethyl)-5′-(pyridin-4-ylcarbamoyl)-biphenyl-3-carboxylic acid tridecyl ester], for which the IC50 lay within 1000 to 10000 nM.

For the compound `CCCCCCCCCCCCCCCCOC(=O)c1cccc(-c2cc(C(=O)Nc3ccncc3)ccc2C(C)N)c1` (centres unmarked) [Compound 24, 2′-(1-Amino-ethyl)-5′-(pyridin-4-ylcarbamoyl)-biphenyl-3-carboxylic acid hexadecyl ester], the IC50 was in the range of 1000 to 10000 nM.

Take `C=CCCCCCCCCOC(=O)c1cccc(-c2cc(C(=O)Nc3ccncc3)ccc2C(C)N)c1` (centres unmarked) [Compound 25, 2′-(1-Amino-ethyl)-5′-(pyridin-4-ylcarbamoyl)-biphenyl-3-carboxylic acid dec-9-enyl ester]: the IC50 lay in the range of 100 to 1000 nM.

Regarding `CC(C)OC(=O)c1cccc(-c2cc(C(=O)Nc3ccncc3)ccc2C(C)N)c1` (centres unmarked) [Compound 27, 2′-(1-Amino-ethyl)-5′-(pyridin-4-ylcarbamoyl)-biphenyl-3-carboxylic acid isopropyl ester], the concentration for half-maximal inhibition (IC50) is less than 100 nM.

Consider `CC(N)c1ccc(C(=O)Nc2ccncc2)cc1-c1cccc(C(=O)OC2CCCC2)c1` (centres unmarked) [Compound 33, 2′-(1-Amino-ethyl)-5′-(pyridin-4-ylcarbamoyl)-biphenyl-3-carboxylic acid cyclopentyl ester], for which the IC50 is less than 100 nM.

Consider `CC(N)c1ccc(C(=O)Nc2ccncc2)cc1-c1cccc(C(=O)OC2CCCCC2)c1` (centres unmarked) [Compound 34, 2′-(1-Amino-ethyl)-5′-(pyridin-4-ylcarbamoyl)-biphenyl-3-carboxylic acid cyclohexyl ester], for which the half-inhibitory concentration (IC50) was less than 100 nM.

For `CC(N)c1ccc(C(=O)Nc2ccncc2)cc1-c1cccc(C(=O)OCC2CC2)c1` (centres unmarked) [Compound 36, 2′-(1-Amino-ethyl)-5′-(pyridin-4-ylcarbamoyl)-biphenyl-3-carboxylic acid cyclopropylmethyl ester], the half-inhibitory concentration (IC50) is less than 100 nM.

`CC(C)COC(=O)c1cccc(-c2cc(C(=O)Nc3ccncc3)ccc2C(C)N)c1` (centres unmarked) [Compound 40, 2′-(1-Amino-ethyl)-5′-(pyridin-4-ylcarbamoyl)-biphenyl-3-carboxylic acid isobutyl ester]: the half-maximal inhibitory concentration (IC50) was less than 100 nM.

With `CC(N)c1ccc(C(=O)Nc2ccncc2)cc1-c1cccc(C(=O)OCC2COc3ccccc3O2)c1` (centres unmarked) [Compound 56, 2′-(1-Amino-ethyl)-5′-(pyridin-4-ylcarbamoyl)-biphenyl-3-carboxylic acid 2,3-dihydro-benzo[1,4]dioxin-2-ylmethyl ester], the IC50 fell in the range of 100 to 1000 nM.

Take `CC#CCOC(=O)c1cccc(-c2cc(C(=O)Nc3ccncc3)ccc2C(C)N)c1` (centres unmarked) [Compound 59, 2′-(1-Amino-ethyl)-5′-(pyridin-4-ylcarbamoyl)-biphenyl-3-carboxylic acid but-2-ynyl ester]: the IC50 was less than 100 nM.

In the case of `CC(N)c1ccc(C(=O)Nc2ccncc2F)cc1-c1cccc(C(=O)OCCF)c1` (centres unmarked) [Compound 61, 2′-(1-Amino-ethyl)-5′-(3-fluoro-pyridin-4-ylcarbamoyl)-biphenyl-3-carboxylic acid 2-fluoro-ethyl ester], the IC50 lay within 100 to 1000 nM.

Consider `CC(N)c1ccc(C(=O)Nc2ccncc2)cc1-c1cccc(C(=O)OCCCl)c1` (centres unmarked) [Compound 62, 2′-(1-Amino-ethyl)-5′-(pyridin-4-ylcarbamoyl)-biphenyl-3-carboxylic acid 2-chloro-ethyl ester], for which the IC50 is less than 100 nM.

`CC(N)c1ccc(C(=O)Nc2ccncc2)cc1-c1cccc(C(=O)OCC(F)(F)F)c1` (centres unmarked) [Compound 63, 2′-(1-Amino-ethyl)-5′-(pyridin-4-ylcarbamoyl)-biphenyl-3-carboxylic acid 2,2,2-trifluoro-ethyl ester]: the half-maximal inhibitory concentration (IC50) lay in the range of 100 to 1000 nM.

With `CC(N)c1ccc(C(=O)Nc2ccncc2)cc1-c1cccc(C(=O)OCC(Cl)(Cl)Cl)c1` (centres unmarked) [Compound 64, 2′-(1-Amino-ethyl)-5′-(pyridin-4-ylcarbamoyl)-biphenyl-3-carboxylic acid 2,2,2-trichloro-ethyl ester], the IC50 was less than 100 nM.

In the case of `CC(N)c1ccc(C(=O)Nc2ccncc2F)cc1-c1cccc(C(=O)OCCO)c1` (centres unmarked) [Compound 67, 2′-(1-Amino-ethyl)-5′-(3-fluoro-pyridin-4-ylcarbamoyl)-biphenyl-3-carboxylic acid 2-hydroxy-ethyl ester], the IC50 was less than 100 nM.

Regarding `CC(N)c1ccc(C(=O)Nc2ccncc2F)cc1-c1cccc(C(=O)OCCCO)c1` (centres unmarked) [Compound 68, 2′-(1-Amino-ethyl)-5′-(3-fluoro-pyridin-4-ylcarbamoyl)-biphenyl-3-carboxylic acid 3-hydroxy-propyl ester], the half-inhibitory concentration (IC50) was less than 100 nM.

The record behind these values is patent publication US8912209B2, “Rock inhibitors” (Amakem NV, priority 2010, dated 2014).
